Common to all, as to assay: biochemical
Common to all, as to type: binding

In one experiment the target is T1, HLA-DRB1*0401 (Homo sapiens, UniProt P01903+P01911, A100K/A169T/F76Y/I96L/K127E/L162R/M171V/N62H/P40V/Q125Y/R42H/S133A/S149N/S66Y/V115G/V209L/W38E).
T1 construct: purchased
The conditions noted are these: binding inhibition assay; NB = non-binder (no dose-dependent inhibition); read-out: DRB1*0401 IC50. The method, then: (§1) The binding assay conducted by EpiVax yields an indirect measure of peptide-MHC affinity as it utilizes a competition assay format per the methodology described in Steere et al. ([35]). […] Post incubation, the mixtures are moved to a 96-well plate coated with anti-HLA-DR antibody to capture HLA-peptide complexes. Time-resolved fluorescence measurement of the bound labeled reference peptide complex present in each mixture is detected with a europium-linked probe via fluorescent spectrophotometry using a SpectraMax M5 system. HLA binding affinity of each test peptide is expressed as the percent inhibition of reference peptide binding. Percent inhibition values (across the test peptide titration range) are used to calculate the half maximal inhibitory concentration (IC50) of each test peptide. For these studies, test peptides were assessed using a range of final concentrations from 100,000 nM to 100 nM. The panel of commercially-available HLA-DRB1 allele monomers used includes: *0101, *0301, *0401, *0701, *0801, *1101, *1301 and *1501. EpiVax established HLA-DRB1 binding affinity cutoffs were used to rank the IC50 values.
(§2) In vitro HLA binding assays (step 2 of workflow shown in Figure 1 ) were carried out with the synthesized peptides to verify the EpiMatrix outputs and provide a measure of accuracy for comparing in silico-predicted HLA-DRB1 allele binding to laboratory assessments of HLA-DRB1 allele binding. These assessments were conducted using a competition assay format whereby IC50 values were calculated based on the ability of the test peptide to compete with a labeled, high binding affinity reference peptide for HLA-DRB1 molecule binding. Sequences for the high affinity reference peptides and the negative control peptide, known not to bind any of the HLA-DRB1 molecules, are provided in Table S18 .

In the next experiment the target is T2, HLA-DRB1*0101 (Homo sapiens, UniProt P01903+P01911, A100R/D57E/F55L/F60I/F76Y/I96L/L162R/M171V/P40L/Q125E/R42F/V115G/Y59C).
T2 construct: purchased
The conditions noted are these: binding inhibition assay; NB = non-binder (no dose-dependent inhibition); read-out: DRB1*0101 IC50. The method, then: as §1, §2

In the next experiment the target is T3, HLA-DRB1*1501 (Homo sapiens, UniProt P01903+P01911).
T3 construct: purchased
As to conditions: binding inhibition assay; NB = non-binder (no dose-dependent inhibition); read-out: DRB1*1501 IC50. The method, then: as §1, §2

The next experiment addresses HLA-DRB1*1101 (Homo sapiens, UniProt P01903+P01911, A100R/A169T/A87E/I96F/K41T/L162R/M171V/P40S/Q125H/Q178H/Q39Y/Q99D/R42S/S66Y/T262R/V115G/W38E). As to conditions: binding inhibition assay; NB = non-binder (no dose-dependent inhibition); read-out: DRB1*1101 IC50. The method, then: as §1, §2
Another experiment addresses HLA-DRB1*0801 (Homo sapiens, UniProt P01903+P01911, A100R/A103L/A169T/D86S/F76Y/H45Y/I96F/K41T/L162R/M171V/P40S/Q125H/Q178H/Q39Y/Q99D/R218S/R42G/S66Y/V115G/W38E). The conditions noted are these: binding inhibition assay; NB = non-binder (no dose-dependent inhibition); read-out: DRB1*0801 IC50. As for the experimental part:
as §1, §2

Another experiment has as its target HLA-DRB1*1301 (Homo sapiens, UniProt P01903+P01911, A100E/A169T/K41T/L162R/M171V/P40S/Q125H/Q178H/Q39Y/Q99D/R42S/S66N/T262R/W38E/Y61H). As to conditions: binding inhibition assay; NB = non-binder (no dose-dependent inhibition); read-out: DRB1*1301 IC50. The method, then: as §1, §2
A further experiment addresses HLA-DRB1*0701 (Homo sapiens, UniProt P01903+P01911, A100R/A102G/A103Q/D57E/D86V/E43K/F76Y/K127E/L162R/M171V/P40G/Q125H/Q99D/R33Q/R42Y/R54Q/S133A/S66F/T210M/V115G/Y107V/Y59L/Y89S). The conditions noted are these: binding inhibition assay; NB = non-binder (no dose-dependent inhibition); read-out: DRB1*0701 IC50. As for the experimental part: as §1, §2

pIC50: −log10 of the molar value. Where a SMILES comes first, the peptide text is derived from it.

The text below walks through data of paper PMC8294059, “Identification and Immune Assessment of T Cell Epitopes in Five Plasmodium falciparum Blood Stage Antigens to Facilitate Vaccine Candidate Selection and Optimization” (Frontiers in Immunology, 2021).

Chain of HLA-DRB1*1101 (P01903 26-254 limits assumed, other chains not shown): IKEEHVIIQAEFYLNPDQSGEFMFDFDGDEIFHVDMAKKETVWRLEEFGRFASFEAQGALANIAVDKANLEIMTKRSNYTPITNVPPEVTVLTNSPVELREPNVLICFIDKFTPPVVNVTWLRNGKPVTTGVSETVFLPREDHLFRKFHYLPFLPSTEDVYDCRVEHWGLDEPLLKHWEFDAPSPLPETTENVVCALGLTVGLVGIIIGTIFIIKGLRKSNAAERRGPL

As to `CC[C@H](C)[C@H](NC(=O)[C@H](CCCCN)NC(=O)CNC(=O)[C@@H](NC(=O)[C@H](CC(C)C)NC(=O)[C@H](CCCCN)NC(=O)[C@H](CCCNC(=N)N)NC(=O)[C@H](CC(N)=O)NC(=O)[C@H](CO)NC(=O)[C@H](CC(C)C)NC(=O)[C@H](CC(=O)O)NC(=O)[C@H](CC(N)=O)NC(=O)[C@H](Cc1c[nH]c2ccccc12)NC(=O)[C@H](Cc1ccc(O)cc1)NC(=O)[C@H](CC(=O)O)NC(=O)[C@@H](NC(=O)CNC(C)=O)[C@@H](C)O)C(C)C)C(=O)N[C@@H](CC(N)=O)C(=O)N[C@H](C(=O)N[C@@H](CC(N)=O)C(N)=O)[C@@H](C)O` [EBA175_011] (Ac-GTDYWNDLSNRKLVGKINTN-NH2), the pIC50 at HLA-DRB1*0401 is 4.28; at HLA-DRB1*0101 it was 6.34; on HLA-DRB1*1501 it was 4.27; on HLA-DRB1*1101 it was 4.54; at HLA-DRB1*0801, less than 4.00; on HLA-DRB1*1301 it was less than 4.00.

Regarding `CSCC[C@H](NC(=O)[C@@H](NC(=O)[C@H](Cc1c[nH]cn1)NC(=O)[C@H](Cc1ccccc1)NC(=O)CNC(=O)[C@H](Cc1c[nH]cn1)NC(=O)[C@H](CCCCN)NC(C)=O)[C@@H](C)O)C(=O)N[C@@H](CC(N)=O)C(=O)N[C@@H](CC(N)=O)C(=O)N[C@@H](CC(C)C)C(=O)N[C@@H](Cc1c[nH]cn1)C(=O)NCC(=O)N[C@@H](CC(=O)O)C(=O)NCC(=O)N[C@H](C(=O)N[C@@H](CO)C(=O)N[C@@H](CCC(=O)O)C(N)=O)C(C)C` [EBA175_016] (Ac-KHGFHTMNNLHGDGVSE-NH2), the pIC50 on HLA-DRB1*0401 is 6.34; on HLA-DRB1*0101, 6.80; on HLA-DRB1*1501 it was 4.10; on HLA-DRB1*1101, 5.06; at HLA-DRB1*1301 it was less than 4.00.

With `CC[C@H](C)[C@H](NC(=O)[C@H](CC(C)C)NC(=O)[C@H](Cc1c[nH]cn1)NC(=O)[C@H](Cc1ccccc1)NC(=O)[C@H](CCCCN)NC(=O)[C@H](CO)NC(=O)[C@H](CCCCN)NC(C)=O)C(=O)N[C@@H](CO)C(=O)N[C@@H](CCCNC(=N)N)C(=O)N[C@@H](CC(N)=O)C(=O)N[C@@H](CO)C(=O)N[C@@H](CCCNC(=N)N)C(=O)N[C@H](C(=O)N[C@@H](CC(N)=O)C(=O)N[C@@H](CCC(N)=O)C(=O)N[C@@H](Cc1ccc(O)cc1)C(N)=O)[C@@H](C)O` [RIPR_009] (Ac-KSKFHLISRNSRTNQY-NH2), the negative-log IC50 (pIC50) was 4.23 at HLA-DRB1*0401; 6.36 on HLA-DRB1*0101; 4.80 at HLA-DRB1*1501; 7.12 at HLA-DRB1*1101; 4.20 at HLA-DRB1*0801; 7.19 on HLA-DRB1*1301.

As for `CC[C@H](C)[C@H](NC(=O)[C@H](Cc1ccc(O)cc1)NC(=O)[C@@H](NC(=O)[C@H](CO)NC(=O)[C@H](Cc1c[nH]cn1)NC(C)=O)[C@@H](C)O)C(=O)N[C@@H](CCCCN)C(=O)N[C@@H](CO)C(=O)N[C@@H](Cc1ccc(O)cc1)C(=O)N[C@@H](CC(C)C)C(=O)N[C@@H](CC(N)=O)C(=O)N[C@H](C(=O)N[C@@H](CC(N)=O)C(=O)N[C@H](C(=O)N[C@@H](CC(N)=O)C(=O)N[C@@H](CC(=O)O)C(=O)NCC(=O)N[C@@H](CC(C)C)C(=O)N[C@@H](CCCCN)C(=O)N[C@@H](Cc1ccc(O)cc1)C(N)=O)C(C)C)[C@@H](C)O` [RH5_003] (Ac-HSTYIKSYLNTNVNDGLKY-NH2), the pIC50 at HLA-DRB1*0401 is 5.13; on HLA-DRB1*0101 it was 6.55; on HLA-DRB1*0701 it was 4.23; at HLA-DRB1*1501, 8.40; at HLA-DRB1*1101, 4.02; at HLA-DRB1*1301 it was 4.70.

Take `CC[C@H](C)[C@H](NC(=O)[C@H](CC(=O)O)NC(=O)[C@@H]1CCCN1C(=O)[C@H](CC(C)C)NC(=O)[C@@H](NC(=O)[C@H](CO)NC(=O)[C@H](CO)NC(=O)[C@H](CC(N)=O)NC(=O)[C@H](Cc1ccc(O)cc1)NC(=O)[C@H](CC(C)C)NC(=O)[C@H](CO)NC(=O)[C@@H]1CCCN1C(=O)[C@@H](NC(=O)[C@H](CC(N)=O)NC(=O)[C@H](CO)NC(=O)[C@H](Cc1c[nH]cn1)NC(=O)[C@H](CC(C)C)NC(=O)[C@H](Cc1c[nH]cn1)NC(=O)[C@H](CO)NC(=O)[C@H](CC(N)=O)NC(=O)[C@H](CCCCN)NC(C)=O)[C@@H](C)CC)[C@@H](C)CC)C(=O)N[C@@H](CC(N)=O)C(=O)N[C@@H](CCCCN)C(=O)N[C@@H](CO)C(N)=O` [RIPR_008] (Ac-KNSHLHSNIPSLYNSSILPDINKS-NH2): the negative-log IC50 (pIC50) on HLA-DRB1*0401 is 4.31; at HLA-DRB1*0101, 6.40; on HLA-DRB1*0701 it was 4.18; on HLA-DRB1*1501, 6.15; at HLA-DRB1*1101, 4.04; at HLA-DRB1*0801 it was 5.03.

`CC(=O)N[C@@H](CCC(=O)O)C(=O)N[C@@H](CCC(=O)O)C(=O)NCC(=O)N[C@@H](Cc1ccc(O)cc1)C(=O)N[C@@H](CCCCN)C(=O)N[C@@H](CC(N)=O)C(=O)N[C@H](C(=O)N[C@@H](CCCCN)C(=O)NCC(=O)N[C@@H](CCCCN)C(=O)N[C@@H](CS)C(=O)N[C@H](C(=O)N1CCC[C@H]1C(=O)N[C@@H](CC(=O)O)C(=O)N[C@@H](CC(N)=O)C(=O)N[C@@H](CCCCN)C(N)=O)C(C)C)C(C)C` [RIPR_015] (Ac-EEGYKNVKGKCVPDNK-NH2): the pIC50 is less than 4.00 on HLA-DRB1*0401; 5.74 at HLA-DRB1*0101; 5.03 at HLA-DRB1*0701; less than 4.00 on HLA-DRB1*1501; 4.49 on HLA-DRB1*1101; less than 4.00 at HLA-DRB1*1301.

For `CC[C@H](C)[C@H](NC(=O)[C@H](CC(=O)O)NC(=O)[C@H](CC(C)C)NC(=O)[C@H](CCCCN)NC(=O)[C@H](CC(N)=O)NC(=O)[C@H](CCC(=O)O)NC(C)=O)C(=O)N[C@@H](CC(C)C)C(=O)N[C@@H](CC(N)=O)C(=O)N[C@@H](CC(N)=O)C(=O)N[C@@H](CO)C(=O)N[C@@H](CCCCN)C(=O)N[C@@H](Cc1ccccc1)C(=O)N[C@@H](CC(N)=O)C(=O)N[C@@H](CCCCN)C(=O)N[C@@H](CCCNC(=N)N)C(=O)N[C@@H](Cc1c[nH]c2ccccc12)C(=O)N[C@@H](CCCCN)C(N)=O` [EBA175_002] (Ac-ENKLDILNNSKFNKRWK-NH2), the negative logarithm of the IC50 (pIC50) on HLA-DRB1*0401 is less than 4.00; at HLA-DRB1*0101 it was 4.93; at HLA-DRB1*1501 it was 4.86; on HLA-DRB1*1301, 4.85.

`CC[C@H](C)[C@H](NC(=O)[C@H](Cc1ccccc1)NC(=O)[C@H](Cc1c[nH]cn1)NC(=O)[C@H](CC(=O)O)NC(C)=O)C(=O)N[C@@H](CCC(=O)O)C(=O)N[C@@H](C)C(=O)N[C@@H](CO)C(=O)N[C@@H](CCCCN)C(=O)N[C@@H](CCCCN)C(=O)N[C@@H](CCC(=O)O)C(=O)N[C@@H](CO)C(=O)N[C@@H](CCC(N)=O)C(=O)N[C@@H](CC(C)C)C(=O)N[C@@H](CC(C)C)C(N)=O` [EBA175_006] (Ac-DHFIEASKKESQLL-NH2): the negative-log IC50 (pIC50) at HLA-DRB1*0401 is less than 4.00; at HLA-DRB1*0101, 5.18; at HLA-DRB1*1101, 5.54; at HLA-DRB1*0801, 5.75; at HLA-DRB1*1301, 4.13.

A word on the pIC50: it is −log10 of the IC50, conventionally taken in molar units.
